In US20080020947A1, “Novel microorganisms having oil biodegradability and method for bioremediation of oil-contaminated soil” (priority 2006, published 2008):

What was measured:
Gordonia nitida NP1 = assay: Biosurfactant's ability to increase diesel oil degradation by Gordonia nitida NP1; type: cell-based; conditions: acid 9 ppm
Procedure: (§1) For this reason, 2-hexyl-3-hydroxy-decanoic acid having 16 carbon atoms according to the present invention was added liquid media each containing 10,000 ppm or 20,000 ppm of diesel oil and mineral medium (NH4NO3, 1 g/L; MgSO4, 0.2 g/L; CaCl2, 0.02 g/L; FeCl2, 0.05 g/L; KH2PO4, 1 g/L; K2HPO4, 1 g/L; pH 7.0). Then, the media were inoculated with each of Rodococcus baikoneurensis EN3 of Example 2 and Gordonia nitida NP1 of Example 6 and cultured at 30° C. for 7 days. Then, an increase in the oil biodegradability of each of the microbial strains was measured using gas chromatography.
FIG. 10 is a graphic diagram showing an increase in the diesel oil degradability of Gordonia nitida NP1, caused by the synthetic biosurfactant 2-hexyl-3-hydroxy-decanoic acid, at an initial diesel concentration of 15,000 ppm. In FIG. 10, the initial inoculation level of […] is 6×10^4 cfu/ml, and the initial concentration of diesel oil is 15,000 ppm. Also, the initial concentrations of 2-hexyl-3-hydroxy-decanoic acid were 9 ppm (▾), 90 ppm (∇) and 900 ppm (▪), the symbol “[…]” indicates a microorganism-uninoculated group (control group 1), and the symbol “∘” indicates a group (control group 2), which was inoculated with microorganisms, but not injected with 2-hexyl-3-hydroxy-decanoic acid. […]

[1] = Critical micelle concentration; type: physicochemical
[2] = test system: mixed cultured strain of Examples 2, 6 and 7; assay: Microbial growth promotion of biosurfactant 2-hexyl-3-hydroxy-decanoic acid (cfu per ml after culture); type: cell-based; conditions: 0.1 in composition of Examples 16 and 17
Procedure: These examples relate to an experiment of confirming whether the growth of microorganisms having oil biodegradability is promoted due to the addition of biosurfactant 2-hexyl-3-hydroxy-decanoic acid.
In this experiment, the mixed cultured strain of Examples 2, 6 and 7 was added to tryptic soy broth (TSB) and then cultured for 13 hours. In the culture process, the microbial strain was added into a 100-ml flask at an initial concentration of 4.9×10^6 cfu/ml to a work volume of 10 ml, and the inoculation level of the strain was 1% (w/v), i.e., 0.1 ml.
In Comparative Examples 7-10 and Examples 16 and 17, the microbial strain was cultured in media (10 g/L) at 30° C. for 24 hours, and then measured for colony-forming units (cfu) per ml to determine the degree of proliferation of microorganisms.
Specifically, a composition used in Comparative Examples 7-10 consisted of glucose, yeast extract, malt extract, Na2HPO4, KH2PO4, K2HPO4, MgSO4, CaCl2, FeSO4, CoCl2, ZnSO4, CuSO4 and MnSO4, and a composition used in Examples 16 and 17 consisted of glucose, yeast extract, malt extract, Na2HPO4, KH2PO4, K2HPO4, MgSO4, CaCl2, FeSO4, CoCl2, ZnSO4, CuSO4 and MnSO4, to which the biosurfactant 2-hexyl-3-hydroxy-decanoic acid was added.

[3] = test system: Rodococcus baikoneurensis EN3; assay: Biosurfactant's ability to increase diesel oil degradation by Rodococcus baikoneurensis EN3; type: cell-based; conditions: initial diesel 20,000 ppm; acid 10 ppm, 50 ppm and 100 ppm; about 30% without acid
Procedure: as §1
FIG. 9 is a graphic diagram showing an increase in the diesel oil degradability of Rodococcus baikoneurensis EN3, caused by the synthetic biosurfactant 2-hexyl-3-hydroxy-decanoic acid, at an initial diesel concentration of 20,000 ppm. In FIG. 9, the initial inoculation level of Rodococcus baikoneurensis EN3 is 6×10^4 cfu/ml, and the initial concentration of diesel oil is 20,000 ppm. Also, the initial concentrations of 2-hexyl-3-hydroxy-decanoic acid are 10 ppm (∘), 50 ppm (□) and 100 ppm (Δ), the symbol “•” indicates a microorganism-uninoculated group (control group 1), and the symbol “▪” indicates a group (control group 2), which was inoculated with microorganisms, but not injected with 2-hexyl-3-hydroxy-decanoic acid.

Q: With `CCCCCCCC(O)C(CCCCCC)C(=O)O` (centres unmarked) [2-hexyl-3-hydroxy-decanoic acid] as the molecule, how does the “change in diesel oil degradation rate of the microbial strain with acid added” value (Gordonia nitida NP1; 90 ppm and 900 ppm, initial diesel 15,000 ppm and 20,000 ppm (FIGS. 10, 11)) read?
A: Its value is “great increase”.

Q: And the “change in oil degradation rate of the microbial strain with acid added” value (Gordonia nitida NP1; initial diesel 20,000 ppm)?
A: Its value is “did not show an increase”.

Q: And the “critical micelle concentration (cmc)” value [1]?
A: Its value is 37.1 ppm.

Q: What about the “effect of addition on growth of the microorganisms” value [2] of the same molecule?
A: The value was “promotion of growth”.

Q: And the “oil biodegradation rate of the microbial strain with acid added” value [3]?
A: Its value is “about 70%”.
